The NIST ThermoML archive (doi:10.1016/j.jct.2015.03.019)

Columns and labels:
[1] = Molar enthalpy of transition or fusion; conditions: Crystal; Adiabatic calorimetry
[2] = for molar entropy: Small (less than 1 g) adiabatic calorimetry; for vapor or sublimation pressure: Transpiration method

CC(C)(C)c1ccc(Oc2ccccc2)cc1 [4-tert-butylphenyl phenyl ether]
Conditions	Molar enthalpy of transition or fusion [kcal/mol]
[1]	5.255

molar entropy [J/K/mol], [2], 101.33 kPa
Conditions	Crystal	Liquid
5 K	0.2278	–
10 K	1.746	–
15 K	5.404	–
20 K	10.73	–
25 K	17.29	–
30 K	24.28	–
35 K	31.51	–
40 K	38.91	–
45 K	46.23	–
50 K	53.46	–
60 K	67.76	–
70 K	81.81	–
80 K	95.45	–
90 K	108.59	–
100 K	121.31	–
110 K	133.7	–
120 K	145.84	–
130 K	157.73	–
140 K	169.45	–
150 K	180.92	–
160 K	192.23	–
170 K	203.29	–
180 K	214.26	–
190 K	225.07	–
200 K	235.72	–
210 K	246.36	–
220 K	256.83	–
230 K	267.23	–
240 K	277.54	–
250 K	287.85	–
260 K	298.16	–
270 K	308.47	–
280 K	318.69	–
290 K	328.92	–
298.15 K	337.23	–
300 K	339.15	–
310 K	349.29	–
320 K	359.35	–
327.84 K	367.17	434.26
330 K	–	436.76
340 K	–	448.48
350 K	–	460.04
360 K	–	471.51
370 K	–	482.82

Conditions	mass density [kg/m3]
[2], 298.15 K, 101.33 kPa, Crystal, Pycnometric method	997.5

[2]
Conditions	Triple point temperature [K]	vapor or sublimation pressure [kPa]
298.46 K, Crystal	–	4.8e-05
299.37 K, Crystal	–	5.3e-05
300.45 K, Crystal	–	6.1e-05
303.52 K, Crystal	–	9.5e-05
306.47 K, Crystal	–	0.000135
310.47 K, Crystal	–	0.000222
310.5 K, Crystal	–	0.000229
312.53 K, Crystal	–	0.000285
314.45 K, Crystal	–	0.000363
315.5 K, Crystal	–	0.000405
316.51 K, Crystal	–	0.000466
317.52 K, Crystal	–	0.00055
318.5 K, Crystal	–	0.000621
319.52 K, Crystal	–	0.000689
320.55 K, Crystal	–	0.000755
321.53 K, Crystal	–	0.000855
322.52 K, Crystal	–	0.00095
323.45 K, Crystal	–	0.001031
323.55 K, Crystal	–	0.001042
324.53 K, Crystal	–	0.001212
Crystal, Adiabatic calorimetry	327.84	–
